Assay results as given in ChEMBL document CHEMBL1129792, “Synthesis and structure-activity relationships of 1,2,3,4-tetrahydroquinoline-2,3,4-trione 3-oximes: novel and highly potent antagonists for NMDA receptor glycine site” (J Med Chem, 1996).

Assays:
[1] = target: Glutamate receptor ionotropic, NMDA 1 (Rattus norvegicus, UniProt P35439); assay: Inhibition of [3H]- DCKA binding to NMDA receptor of rat brain membranes; type: cell membranes, Membrane
[2] = Functional antagonism of NR1a/2C N-methyl-D-aspartate glutamate receptor of rat membrane expressed in Xenopus oocytes; details: Oocyte
[3] = target: Glutamate receptor ionotropic, AMPA (Rattus norvegicus) (UniProt P19491+P19492+P19493+P19490); assay: Inhibition of Ionotropic glutamate receptor AMPA in xenopus oocytes expressing the rat cerebral cortex poly(A+) RNA; type: cell-based; details: Oocyte
[4] = Steady state Selectivity index for inhibition at NMDA receptor glycine site was estimated by dividing Kb (AMPA) by Kb (NMDA)

IC50 [1] | Kb [3] | Selectivity [4] | Compound | Kb [2]
0.17 µM |  |  | O=Nc1c(O)nc2ccc(Cl)c(Cl)c2c1O | 
 | 0.6 µM | 13 | O=Nc1c(O)nc2cc(Cl)cc(Cl)c2c1O | 0.047 µM
3.4 µM |  |  | O=Nc1c(O)c2cc(Cl)ccc2[nH]c1=O | 
0.007 µM | 0.18 µM |  | O=Nc1c(O)nc2cc(Cl)c(Cl)c(Cl)c2c1O | 0.022 µM
0.012 µM | 0.41 µM | 17 | O=Nc1c(O)nc2cc(Cl)c(Cl)cc2c1O | 0.024 µM
0.053 µM | 0.74 µM | 8.6 | O=Nc1c(O)nc2cc(Cl)ccc2c1O | 0.086 µM
1.4 µM |  |  | O=Nc1c(O)nc2ccccc2c1O | 
4.4 µM |  |  | O=Nc1c(O)nc2cccc(Cl)c2c1O | 
> 100 µM |  |  | O=Nc1c(O)nc2c(Cl)cccc2c1O | 

The next lines start with the molecule.

Compound | IC50 [1] | Kb [3] | Selectivity [4] | Kb [2]
Cc1cc(C)c2nc(O)c(O)nc2c1 | 2.1 µM |  |  | 
Oc1nc2ccc(Cl)cc2nc1O | 1.8 µM |  |  | 2.6 µM
Oc1nc2cc(F)c(Cl)c(F)c2nc1O | 0.63 µM |  |  | 
Oc1nc2cc(Cl)c(Cl)cc2nc1O [2,3-DIHYDROXY-6,7-DICHLOROQUINOXALINE] | 0.13 µM |  |  | 0.38 µM
Oc1nc2cc(Cl)cc(Cl)c2nc1O | 0.28 µM |  |  | 0.73 µM
O=c1[nH]c2c(F)c(F)c(F)c(F)c2[nH]c1=O | 0.73 µM |  |  | 
Cc1cc(C)c2c(O)c(N=O)c(=O)[nH]c2c1 | 0.037 µM |  |  | 
Oc1nc2cc(Cl)c(Cl)c(Cl)c2nc1O | 0.03 µM |  |  | 0.082 µM
O=Nc1c(O)c2c(F)c(F)c(F)c(F)c2[nH]c1=O | 3.3 µM |  |  | 
O=Nc1c(O)c2c(Cl)cc(Cl)cc2[nH]c1=O | 0.033 µM |  |  | 
Cc1cc(C)c2c(O)c(N=O)c(O)nc2c1 |  | 2.6 µM | 15 | 0.17 µM
O=Nc1c(O)c2cc(F)c(Cl)c(F)c2[nH]c1=O | 0.91 µM |  |  | 
Oc1nc2ccccc2nc1O | 9.8 µM |  |  | 
